In US9555038B2, “Heterocycle-substituted tetracyclic compounds and methods of use thereof for the treatment of viral diseases” (Merck Sharp & Dohme Corp., priority 2013, dated 2017):
Like-named read-outs stand apart in the source and are kept apart here.

Tests used:
HCV replicon 1A = experiment: Cell-based HCV Replicon Assay A, replicon 1A
In short: (§1)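 HCV replicon RNA levels are measured by multiplexed real-time RT-PCR, with cyclophilin as internal control, after 3 days of compound exposure. Compounds are tested in 10 serial dilutions starting between 333.3 nM and 1.667 nM, with 5% FBS in the medium.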

HCV replicon 1AY93H = experiment: Cell-based HCV Replicon Assay A, replicon 1AY93H
In short: as §1

HCV replicon 2B = experiment: Cell-based HCV Replicon Assay A, replicon 2B
In short: as §1

HCV replicon 1AQ30D = experiment: Cell-based HCV Replicon Assay B, replicon 1AQ30D
In short: (§2)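 Replicon cells seeded in 5% FBS; compounds added 24 h later, then 3 days' incubation. Replicon RNA quantified by real-time RT-PCR with genotype-specific primers/probes (NS5B amplicon for 1b). EC50 = concentration raising CT by 1 over projected baseline.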

HCV replicon 1B = experiment: Cell-based HCV Replicon Assay B, replicon 1B
In short: as §2

[1] = read-out: 1A Y93H IC50, replicon 1AY93H
[2] = read-out: 1A Q30D IC50, replicon 1AQ30D
[3] = Hepatitis C virus, read-out: 1A Y93H IC50 (nM), replicon 1AY93H
[4] = Hepatitis C virus, read-out: 1A Q30D IC50 (nM), replicon 1AQ30D
[5] = Hepatitis C virus, read-out: 2B IC50 (nM), replicon 2B

| Structure (SMILES) | IC50 (HCV replicon 1A) | IC50 (HCV replicon 1AY93H; [1]) | IC50 (HCV replicon 2B; read-out: 2B IC50, replicon 2B) | IC50 (HCV replicon 1AQ30D; [2]) | IC50 (HCV replicon 1B) | IC50 (HCV replicon 1A; Hepatitis C virus) | IC50 (HCV replicon 1AY93H; [3]) | IC50 (HCV replicon 1AQ30D; [4]) | IC50 (HCV replicon 1B; Hepatitis C virus) | IC50 (HCV replicon 2B; [5]) | IC50 (HCV replicon 1AY93H; replicon 1AY93H, read-out: 1A Y93H IC50) | IC50 (HCV replicon 2B; replicon 2B, read-out: 2B IC50) | IC50 (HCV replicon 1AQ30D; replicon 1AQ30D, read-out: 1A Q30D IC50) |
| --- | --- | --- | --- | --- | --- | --- | --- | --- | --- | --- | --- | --- | --- |
| COC(=O)NC(C(=O)N1[C@@H]2C[C@@H]2C[C@H]1c1ncc(-c2ccc3c(c2)cc2n3C(c3cnc(C4CC4)s3)Oc3cc(-c4cnc([C@@H]5CCCN5C(=O)[C@@H](NC(=O)OC)C(C)C)[nH]4)cc(F)c3-2)[nH]1)C1C[C@@H](C)O[C@@H](C)C1 (single isomer, unassigned) [Compound 311] | 2 pM | 0.0019 nM | 0.003 nM | 0.011 nM | 2 pM | – | – | – | – | – | – | – | – |
| COC(=O)N[C@H](C(=O)N1CCC[C@H]1c1ncc(-c2cc(F)c3c(c2)OC(c2cnc(Nc4ccc(F)cc4)s2)n2c-3cc3cc(-c4cnc([C@@H]5CCCN5C(=O)[C@@H](NC(=O)OC)C(C)C)[nH]4)ccc32)[nH]1)C(C)C (single isomer, unassigned) [Compound 535] | 3.1 pM | 0.084 nM | 0.012 nM | 0.172 nM | 3.2 pM | – | – | – | – | – | – | – | – |
| COC(=O)N[C@H](C(=O)N1CCC[C@H]1c1ncc(-c2cc(F)c3c(c2)OC(c2cncs2)n2c-3cc3cc(-c4cnc([C@@H]5CCCN5C(=O)[C@@H](NC(=O)OC)C(C)C)[nH]4)ccc32)[nH]1)C(C)C (single isomer, unassigned) [Compound 2] | – | – | 2.31 nM | – | – | 3.5 pM | 6.95 nM | 38.3 nM | 30 pM | – | – | – | – |
| COC(=O)N[C@H](C(=O)N1CCC[C@H]1c1ncc(-c2cc(F)c3c(c2)OC(c2cnc(OC)s2)n2c-3cc3cc(-c4cnc([C@@H]5CCCN5C(=O)[C@@H](NC(=O)OC)C(C)C)[nH]4)ccc32)[nH]1)C(C)C (single isomer, unassigned) [Compound 14] | 1.4 pM | 0.0034 nM | 0.015 nM | – | – | – | – | 0.115 nM | 2 pM | – | – | – | – |
| COC(=O)N[C@H](C(=O)N1CCC[C@H]1c1ncc(-c2cc(F)c3c(c2)OC(c2ncc(-c4ccc(C#N)cc4)s2)n2c-3cc3cc(-c4cnc([C@@H]5CCCN5C(=O)[C@@H](NC(=O)OC)C(C)C)[nH]4)ccc32)[nH]1)C(C)C (single isomer, unassigned) [Compound 43] | – | 0.0081 nM | 0.004 nM | 0.077 nM | – | 2.3 pM | – | – | 2 pM | – | – | – | – |
| COC(=O)N[C@H](C(=O)N1CCC[C@H]1c1ncc(-c2cc(F)c3c(c2)OC(c2cnc(-c4ccc(OC)cc4)s2)n2c-3cc3cc(-c4cnc([C@@H]5CCCN5C(=O)[C@@H](NC(=O)OC)C(C)C)[nH]4)ccc32)[nH]1)C(C)C (single isomer, unassigned) [Compound 45] | – | 0.006 nM | 0.011 nM | – | – | 1.8 pM | – | 0.072 nM | 1 pM | – | – | – | – |
| COC(=O)NC(C(=O)N1CCC[C@H]1c1ncc(-c2ccc3c(c2)cc2n3C(c3cnc(C4CC4)s3)Oc3cc(-c4cnc([C@@H]5CCCN5C(=O)[C@@H](NC(=O)OC)C(C)C)[nH]4)cc(C)c3-2)[nH]1)C1C[C@@H](C)O[C@@H](C)C1 (single isomer, unassigned) [Compound 212] | – | – | – | – | – | 6.8 pM | 0.0354 nM | 0.499 nM | 8 pM | 0.007 nM | – | – | – |
| COC(=O)NC(C(=O)N1CCC[C@H]1c1ncc(-c2ccc3c(c2)c(F)c2n3C(c3cnc(C4CC4)s3)Oc3cc(-c4cnc([C@@H]5CCCN5C(=O)[C@@H](NC(=O)OC)C(C)C)[nH]4)cc(F)c3-2)[nH]1)C1CCOC(C)(C)C1 (single isomer, unassigned) [Compound 72] | – | – | – | – | – | 2.9 pM | 0.006 nM | 0.099 nM | 2.4 pM | 0.005 nM | – | – | – |
| COC(=O)NC(C(=O)N1[C@@H]2C[C@@H]2C[C@H]1c1ncc(-c2ccc3c(c2)cc2n3C(c3cnc(C4(C)CCCC4)s3)Oc3cc(-c4cnc([C@@H]5CCCN5C(=O)[C@@H](NC(=O)OC)C(C)C)[nH]4)cc(F)c3-2)[nH]1)C1C[C@@H](C)O[C@@H](C)C1 (single isomer, unassigned) [Compound 473] | – | 0.002 nM | 0.01 nM | – | – | 2.6 pM | – | 0.011 nM | 2.8 pM | – | – | – | – |
| CCCOCc1ncc(C2Oc3cc(-c4cnc([C@@H]5CCCN5C(=O)[C@@H](NC(=O)OC)C(C)C)[nH]4)cc(F)c3-c3cc4cc(-c5cnc([C@@H]6CCCN6C(=O)[C@@H](NC(=O)OC)C(C)C)[nH]5)ccc4n32)s1 (single isomer, unassigned) [Compound 492] | 2.8 pM | 0.03 nM | 0.146 nM | 0.535 nM | 2.9 pM | – | – | – | – | – | – | – | – |
| COC(=O)N[C@H](C(=O)N1CCC[C@H]1c1ncc(-c2cc(F)c3c(c2)OC(c2cnc(-c4ccc(F)cc4)s2)n2c-3cc3cc(-c4cnc([C@@H]5CCCN5C(=O)[C@@H](NC(=O)OC)C(C)C)[nH]4)ccc32)[nH]1)C(C)C (single isomer, unassigned) [Compound 31] | – | 0.0063 nM | 0.004 nM | – | – | 1.2 pM | – | 0.046 nM | 1 pM | – | – | – | – |
| COC(=O)NC(C(=O)N1[C@@H]2C[C@@H]2C[C@H]1c1ncc(-c2ccc3c(c2)cc2n3C(c3cnc(C4CCCC4)s3)Oc3cc(-c4cnc([C@@H]5CCCN5C(=O)[C@@H](NC(=O)OC)C(C)C)[nH]4)cc(F)c3-2)[nH]1)C1CCOC(C)(C)C1 (single isomer, unassigned) [Compound 321] | – | 0.0019 nM | 0.004 nM | 0.007 nM | – | 2.9 pM | – | – | 3 pM | – | – | – | – |
| COC(=O)NC(C(=O)N1[C@@H]2C[C@@H]2C[C@H]1c1ncc(-c2ccc3c(c2)cc2n3C(c3cnc(CC(C)C)s3)Oc3cc(-c4cnc([C@@H]5CCCN5C(=O)[C@@H](NC(=O)OC)C(C)C)[nH]4)cc(F)c3-2)[nH]1)C1CCOC(C)(C)C1 (single isomer, unassigned) [Compound 438] | 3.6 pM | – | – | – | 3.7 pM | – | – | – | – | – | 0.004 nM | 0.006 nM | 0.03 nM |
| COC(=O)NC(C(=O)N1CCC[C@H]1c1ncc(-c2ccc3c(c2)cc2n3C(c3nc(C(F)(F)F)cs3)Oc3cc(-c4cnc([C@@H]5CCCN5C(=O)[C@@H](NC(=O)OC)C(C)C)[nH]4)cc(F)c3-2)[nH]1)C1C[C@@H](C)O[C@@H](C)C1 (single isomer, unassigned) [Compound 76] | 2.7 pM | 0.0322 nM | 0.141 nM | – | – | – | – | 0.422 nM | 3 pM | – | – | – | – |
| CCCc1ncc(C2Oc3cc(-c4cnc([C@@H]5CCCN5C(=O)[C@@H](NC(=O)OC)C(C)C)[nH]4)cc(F)c3-c3cc4cc(-c5cnc([C@@H]6CCCN6C(=O)[C@@H](NC(=O)OC)C(C)C)[nH]5)ccc4n32)s1 (stereo partly drawn) [Compound 15] | – | 0.0059 nM | 0.025 nM | – | 3 pM | 2.9 pM | – | 0.118 nM | – | – | – | – | – |
| CCc1ncc(C2Oc3cc(-c4cnc([C@@H]5CCCN5C(=O)[C@@H](NC(=O)OC)C(C)C)[nH]4)cc(F)c3-c3cc4cc(-c5cnc([C@@H]6CCCN6C(=O)C(NC(=O)OC)C6CCOC(C)(C)C6)[nH]5)ccc4n32)s1 (single isomer, unassigned) [Compound 40] | 3.5 pM | 0.0039 nM | 0.006 nM | – | – | – | – | 0.03 nM | 3 pM | – | – | – | – |
| COC(=O)N[C@H](C(=O)N1CCC[C@H]1c1ncc(-c2cc(F)c3c(c2)OC(c2cnc(-c4ccc(OC(F)(F)F)cc4)s2)n2c-3cc3cc(-c4cnc([C@@H]5CCCN5C(=O)[C@@H](NC(=O)OC)C(C)C)[nH]4)ccc32)[nH]1)C(C)C (single isomer, unassigned) [Compound 78] | 1.4 pM | 0.165 nM | 0.193 nM | 1.86 nM | 1 pM | – | – | – | – | – | – | – | – |
| COC(=O)N[C@H](C(=O)N1CCC[C@H]1c1ncc(-c2cc(F)c3c(c2)OC(c2cnc(C4CC4)s2)n2c-3cc3cc(-c4cnc([C@@H]5CCCN5C(=O)[C@@H](NC(=O)OC)C(C)C)[nH]4)ccc32)[nH]1)C(C)C (single isomer, unassigned) [Compound 10] | 1.4 pM | 0.0035 nM | 0.011 nM | – | – | – | – | 0.097 nM | 2 pM | – | – | – | – |
